One assay has as its target T1, alpha-1B adrenoceptor (Homo sapiens, UniProt P35368).
T1 construct: expressed in transfected cells; host or cells: CHO-K1
T1 sequence (P35368 1-520): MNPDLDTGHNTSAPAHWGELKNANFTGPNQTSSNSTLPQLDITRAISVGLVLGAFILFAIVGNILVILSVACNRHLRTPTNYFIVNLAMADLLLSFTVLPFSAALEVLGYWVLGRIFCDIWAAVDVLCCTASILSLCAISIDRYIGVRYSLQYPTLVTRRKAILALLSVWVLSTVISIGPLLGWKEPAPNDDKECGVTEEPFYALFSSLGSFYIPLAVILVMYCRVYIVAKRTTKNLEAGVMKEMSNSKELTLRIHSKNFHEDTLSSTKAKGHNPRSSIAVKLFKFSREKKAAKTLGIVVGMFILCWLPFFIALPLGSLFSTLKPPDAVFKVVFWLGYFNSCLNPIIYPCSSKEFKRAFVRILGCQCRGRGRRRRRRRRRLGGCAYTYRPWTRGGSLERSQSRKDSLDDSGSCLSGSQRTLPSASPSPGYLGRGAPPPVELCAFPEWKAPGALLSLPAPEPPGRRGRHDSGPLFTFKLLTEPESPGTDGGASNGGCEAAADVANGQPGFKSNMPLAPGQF
As to the kind of experiment: [3H]prazosin binding (alpha1-adrenoceptor) assay, alpha-1B. To be noted: membranes of transfected CHO-KI cells, read-out: affinity towards the alpha-1B adrenoceptor (pKi) (converted). As to the method: (§1) Alpha1A, alpha1B, and alpha1D adrenoceptor transfected CHO-KI cells, prepared using the methods described by Chang et al., FEBS Lett. 1998, 422:279-283, were grown to confluence in T-162 tissue culture flasks in Ham's F-12 culture medium supplemented with 10% fetal bovine serum, geneticin (150 µg/mL) and streptomycin/penicillin (30 µg/mL/30 µg/mL) at 37 °C in 7% CO2. Cells were harvested by incubating with phosphate-buffered saline (PBS) containing 30 µM EDTA for 5-10 min at 37 °C. Cells were pelleted by centrifuging at 500 x g for 5 min, and the pelleted cells were homogenized (Polytron homogenizer) in 10 vols (w/v) of 50 mM Tris, 1 mM EDTA, (homogenisation buffer, pH 7.4 at 4 °C). The homogenate was centrifuged at 45,000 x g for 20 min. The pellet was resuspended in the homogenizing buffer and rehomogenized. The resulting homogenate was centrifuged at 45,000 x g for 20 min. The pellet was resuspended in 50 mM Tris buffer (pH 7.4 at 4 °C), aliquoted, frozen, and stored at -80 °C for further use.
(§2) The membranes were thawed at room temperature and diluted in assay buffer (50 mM Tris buffer at […]) at 37 °C and homogenized using the Polytron tissue disrupter. The membranes were incubated with the radioligand ([^3H]prazosin, NEN, 0.1 - 0.5 nM) and test compound at 37 °C for 30 min. The membranes were then filtered over polyethyleneimine-treated GF/B unifilter plates using a Packard Filtermate Harvester and washed with ice-cold 50 mM Tris-HCl, 1 mM EDTA buffer (3 x 3 sec. washes). Scintillation cocktail was added to the filter plates and bound radioligand determined by liquid scintillation spectrophotometry.
(§3) For each experiment, total binding (in the absence of any test or reference compounds) and non-specific binding (10 µM phentolamine) were determined. For each sample tested, the concentration producing 50% inhibition of binding (IC50) and Hill Slope (nH) was determined using iterative non-linear curve fitting techniques with Kaleidagraph (Synergy Software) or other appropriate software. If the radioligand KD was known, the inhibition dissociation constant (K1) of each ligand was determined according to the method of Cheng and Prusoff (Cheng, Y-C. and Prusoff, W.H., Biochem. Pharmacol., 1973, 22, 3099-3108).

The target in another assay is T2, alpha-1A adrenoceptor (Homo sapiens, UniProt P35348).
T2 construct: expressed in transfected cells; host or cells: CHO-K1
T2 sequence (P35348 1-466): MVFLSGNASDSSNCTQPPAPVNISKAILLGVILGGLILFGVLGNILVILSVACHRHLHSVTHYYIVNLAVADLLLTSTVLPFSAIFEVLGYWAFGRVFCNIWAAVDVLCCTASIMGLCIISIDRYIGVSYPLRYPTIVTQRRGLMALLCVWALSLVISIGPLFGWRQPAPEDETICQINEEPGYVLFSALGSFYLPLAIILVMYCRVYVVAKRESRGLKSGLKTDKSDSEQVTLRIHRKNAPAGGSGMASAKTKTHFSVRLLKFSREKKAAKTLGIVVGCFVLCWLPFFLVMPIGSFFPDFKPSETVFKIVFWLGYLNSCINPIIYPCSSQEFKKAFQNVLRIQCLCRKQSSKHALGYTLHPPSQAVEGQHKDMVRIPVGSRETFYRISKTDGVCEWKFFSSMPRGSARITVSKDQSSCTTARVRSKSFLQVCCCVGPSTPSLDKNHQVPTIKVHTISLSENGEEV
As to the kind of experiment: [3H]prazosin binding (alpha1-adrenoceptor) assay, alpha-1A. To be noted: membranes of transfected CHO-KI cells, read-out: affinity towards the alpha-1A adrenoceptor (pKi) (converted). The procedure: as §1, §2, §3

The target in another assay is T3, alpha-1D adrenoceptor (Homo sapiens, UniProt P25100).
T3 construct: expressed in transfected cells; host or cells: CHO-K1
T3 sequence (P25100 1-572): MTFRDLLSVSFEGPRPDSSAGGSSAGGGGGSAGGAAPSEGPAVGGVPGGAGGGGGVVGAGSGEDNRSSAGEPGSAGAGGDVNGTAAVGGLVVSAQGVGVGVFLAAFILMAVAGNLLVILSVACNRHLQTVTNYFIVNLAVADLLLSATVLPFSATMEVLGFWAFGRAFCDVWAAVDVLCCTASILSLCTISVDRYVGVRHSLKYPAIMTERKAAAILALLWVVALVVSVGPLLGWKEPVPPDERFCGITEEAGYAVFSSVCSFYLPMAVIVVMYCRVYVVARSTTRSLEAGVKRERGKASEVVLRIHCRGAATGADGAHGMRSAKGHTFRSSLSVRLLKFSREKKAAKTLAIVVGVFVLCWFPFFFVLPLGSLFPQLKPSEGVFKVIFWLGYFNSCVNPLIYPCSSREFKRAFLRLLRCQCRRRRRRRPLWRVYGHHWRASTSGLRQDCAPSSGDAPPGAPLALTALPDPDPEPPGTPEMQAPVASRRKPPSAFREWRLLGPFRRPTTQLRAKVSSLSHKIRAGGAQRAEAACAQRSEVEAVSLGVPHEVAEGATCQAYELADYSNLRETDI
As to the kind of experiment: [3H]prazosin binding (alpha1-adrenoceptor) assay, alpha-1D. To be noted: membranes of transfected CHO-KI cells, read-out: affinity towards the alpha-1D adrenoceptor (pKi) (converted). As to the method:
as §1, §2, §3

Assay [1] concerns hypogastric nerve stimulation-induced increases in intraurethral pressure and phenylephrine-induced increases in diastolic blood pressure. As to the kind of experiment: Dog in vivo blood and intraurethral pressure assay. As to conditions: anesthetized mongrel dogs, i.v. bolus, increasing doses. The procedure: The following describes an in vivo assay for measuring the relative effect of test compounds on hypogastric nerve stimulation-induced increases in intraurethral pressure and phenylephrine-induced increases in diastolic blood pressure in anesthetized dog.
Mongrel dogs (10 to 20 kg) were fasted for 12 to 18 hours and anesthetized with […] (35 mg/kg, i.v.). An endotracheal tube was inserted and thereafter the lungs were mechanically ventilated with room air. The right femoral vein was isolated and cannulated with two polyethylene cannulae, one for the administration of a continuous infusion of phenobarbital sodium (5 to 10 mg/kg/hr) and the other for bolus administration of test substances. The right femoral artery was isolated and cannulated to the abdominal aorta with a fluid filled polyethylene cannula connected to an external pressure transducer for monitoring diastolic aortic pressure (DAP). The bladder was exposed via a ventral midline abdominal incision and emptied of urine through a 22 gauge needle. The bladder was cannulated through a stab incision with a water filled balloon catheter connected to an external pressure transducer for monitoring prostatic intraurethral pressure (IUP). The right hypogastric nerve (HGN) was carefully isolated and attached to a Dastre's electrode for nerve stimulation. […]

On to `COc1cc2nc(N3CCc4c(cccc4-c4cnccc4N)C3)[nH]c(=O)c2cc1OC` [Compound 902, 2-[5-(4-amino-pyridin-3-yl)-3,4-dihydro-1H-isoquinolin-2-yl)-6,7-dimethoxy-3H-quinazolin-4-one], for which the Ki on alpha-1B adrenoceptor is 56.2 nM; on alpha-1A adrenoceptor, 25.1 nM; at alpha-1D adrenoceptor it was 692 nM.
For `COc1cc2nc(N3CCc4c(cccc4N=CN(C)C)C3)[nH]c(=O)c2cc1OC` [Compound 801, N-[2-(6,7-dimethoxy-4-oxo-3,4-dihydro-quinazolin-2-yl)-1,2,3,4-tetrahydro-isoquinolin-5-yl]-N,N-dimethyl-formamidine] the same measures were 4.47 nM, 2.75 nM and 372 nM.
For `COc1ccc(-c2cccc3c2CCN(c2nc4cc(OC)c(OC)cc4c(=O)[nH]2)C3)cc1` [Compound 106, 6,7-dimethoxy-2-[5-(4-methoxy-phenyl)-3,4-dihydro-1H-isoquinolin-2-yl]-3H-quinazolin-4-one], the Ki at alpha-1B adrenoceptor was 0.741 nM; on alpha-1A adrenoceptor it was 3.8 nM; on alpha-1D adrenoceptor, 10000 nM.
In the case of `COc1cc2c(cc1OC)CN(c1nc(=O)c3cc(OC)c(OC)cc3[nH]1)CC2` [Compound 105, 2-(6,7-dimethoxy-3,4-dihydro-1H-isoquinolin-2-yl)-6,7-dimethoxy-1H-quinazolin-4-one], the Ki on alpha-1B adrenoceptor was 0.759 nM; at alpha-1A adrenoceptor it was 0.955 nM; at alpha-1D adrenoceptor it was 47.9 nM.
Taken in the same sequence, the figures for `COc1cc2nc(N3CCc4c(ncn4-c4ccc5c(c4)OCO5)C3)[nH]c(=O)c2cc1OC` [Compound 612, 2-(1-benzo[1,3]dioxol-5-yl-1,4,6,7-tetrahydro-imidazo[4,5-c]pyridin-5-yl)-6,7-dimethoxy-3H-quinazolin-4-one] were 12.3 nM, 2.69 nM and 178 nM.
Consider `CCCCc1ncc2n1CCN(c1nc(=O)c3cc(OC)c(OC)cc3[nH]1)C2` [Compound 306, 2-(3-butyl-5,6-dihydro-8H-imidazo[1,5-α]pyrazin-7-yl)-6,7-dimethoxy-1H-quinazolin-4-one], for which the figures for the Ki at alpha-1B adrenoceptor, on alpha-1A adrenoceptor and on alpha-1D adrenoceptor were 3.09 nM, 1.12 nM and 19.5 nM, respectively.
Turning to `COc1cc2c(cc1OC)CN(C1=Nc3cc(OC)c(OC)cc3S(=O)(=O)N1)CC2` [Compound 101, 3-(6,7-dimethoxy-3,4-dihydro-1H-isoquinolin-2-yl)-6,7-dimethoxy-2H-benzo[1,2,4]thiadiazine-1,1-dioxide], the figures for the Ki on alpha-1B adrenoceptor, on alpha-1A adrenoceptor and on alpha-1D adrenoceptor were 7.08 nM, 1.62 nM and 66.1 nM, respectively.
Regarding `COc1cc2nc(N3CCc4nc5ccncc5cc4C3)[nH]c(=O)c2cc1OC` [Compound 146, 2-(3,4-dihydro-1H-2,7,10-triaza-anthracen-2-yl)-6,7-dimethoxy-3H-quinazolin-4-one], the figures for the Ki on alpha-1B adrenoceptor, at alpha-1A adrenoceptor and at alpha-1D adrenoceptor were 5.25 nM, 3.47 nM and 91.2 nM, respectively.
`COc1cc2nc(N3CCc4c(ncnc4N4CCN(C)CC4)C3)[nH]c(=O)c2cc1OC` [Compound 203, 6,7-dimethoxy-2-[4-(4-methyl-piperazin-1-yl)-5,8-dihydro-6H-pyrido[3,4-d]pyrimidin-7-yl]-3H-quinazolin-4-one]: the results for the Ki at alpha-1B adrenoceptor, at alpha-1A adrenoceptor and on alpha-1D adrenoceptor were 8.71 nM, 4.47 nM and 575 nM, respectively.
Take `COc1cc2nc(N3CCN(C(=O)c4ccco4)CC3)nc(N)c2cc1OC` [prazosin]: the “inhibition of HGN stimulation-induced increases in IUP and of phenylephrine-induced increases in DAP” value in assay [1] is “inhibited increases in IUP and DAP in similar fashion”.
Take `COc1cc2nc(N3CCc4c(cc(OC)c(OC)c4C#N)C3)[nH]c(=O)c2cc1OC` [Compound 118, 2-(6,7-dimethoxy-4-oxo-3,4-dihydro-quinazolin-2-yl)-6,7-dimethoxy-1,2,3,4-tetrahydro-isoquinoline-5-carbonitrile]: the Ki is 1.51 nM at alpha-1B adrenoceptor, 0.759 nM on alpha-1A adrenoceptor and 17 nM on alpha-1D adrenoceptor.
For `COc1cc2nc(N3CCc4ccc(N5CCCC5)cc4C3)[nH]c(=O)c2cc1OC` [Compound 113, 6,7-dimethoxy-2-(7-pyrrolidin-1-yl-3,4-dihydro-1H-isoquinolin-2-yl)-3H-quinazolin-4-one], the figures for the Ki at alpha-1B adrenoceptor, on alpha-1A adrenoceptor and at alpha-1D adrenoceptor were 0.912 nM, 2.04 nM and 33.9 nM, respectively.

The values are drawn from patent EP1363899B1, “QUINAZOLONE DERIVATIVES AS ALPHA 1A/B ADRENERGIC RECEPTOR ANTAGONISTS” (F.HOFFMANN-LA ROCHE AG, priority 2001, dated 2002).
